# According to US6946463B2, “1,2,5,10-tetrahydropyridazino[4,5-b]quinoline-1,10-diones and their use for the treatment of pain” (Astrazeneca AB, priority 2000, dated 2005):
# Where a name gives a salt, the structure may show the parent alone. Read-outs that look alike come from different tables or passages of the source.
# Target: T1, NMDA receptor glycine site (Rattus norvegicus, UniProt P35439)
# T1 construct: fresh brain tissue including cerebral cortex and hippocampus from male Sprague Dawley rats was homogenized; tissue Analytical Biological Services Inc; host or cells: rat brain membranes (cerebral cortex and hippocampus, male Sprague Dawley rats)
# Test: Test A: Inhibition of binding of [3H]-MDL105,519 to brain membranes
# Text: Test A: Inhibition of Binding of [^3H]-MDL105,519:
# Binding of compounds to the NMDA receptor glycine site may be assessed by measuring the ability of test compounds to inhibit the binding of tritiated MDL105,519 to brain membranes bearing the receptor.
# Briefly, fresh brain tissue including cerebral cortex and hippocampus from male Sprague Dawley rats was homogenized in 0.32 M sucrose and centrifuged at low speed to separate cellular membranes from other cellular components. The membranes were then washed 3 times using deionized water, followed by treatment with 0.04% Triton X-100. Finally, membranes were washed six times in 50 mM Tris citrate buffer, pH 7.4, and frozen at −80° C. until use.
# [^3H]MDL105,519 (72 Ci/mmol) was purchased from Amersham. Cold MDL105,519 was purchased from Sigma/RBI. […] On the day of the experiment, brain membranes were thawed at room temperature and suspended in 50 mM tris acetate buffer, pH 7.4 (“TAB”). Seventy-five micro grams per milliliter protein (by using the BioRad dye) were used for competition binding. The experiments were carried out using 96-well plates. […] Non specific binding was determined by using 100 μM of unlabeled MDL105,519. […] After incubation, unbound [^3H]ML105,519 was removed by filtration onto GF/B Unifilter plates using a Packard harvester. Filters were washed four times with ice cold TAB (total of 1.2 mL buffer). The plates were dried overnight at room temperature and bound radioactivity was measured on a Packard TopCount after the addition of 45 μL per well of the MICROSCINT O.
# Human Brain Membranes: Human brain membranes were obtained from Analytical Biological Services Inc., and assays were performed as described for rat membranes.
# Data analysis: Data was analyzed using a Microsoft Excel spreadsheet and GraphPad Prizm software and potency of compounds is expressed as the Ki (nM).
# [1] = inhibition of [3H]-MDL105,519 binding to brain membranes, 1.2 nM radioligand, 30 minutes at room temperature
Ki [µM],SMILES,also measured
0.907,"Cc1cnccc1C(C)n1nc(O)c2[nH]c3cc(Cl)ccc3c(=O)c2c1=O (racemic) [Ex. 5, (+/−)-7-Chloro-4-hydroxy-2-(1-(3-methylpyrid-4-yl))ethyl-1,2,5,10-tetrahydropyridazino[4,5-b]quinoline-1,10-dione]",
1.78,"Cc1cccnc1C(C)n1nc(O)c2[nH]c3cc(Cl)ccc3c(=O)c2c1=O (racemic) [Ex. 7, (+/−)-7-Chloro-4-hydroxy-2-(1-methyl(3-methylpyrid-2-yl)methyl)-1,2,5,10-tetrahydropydridazino[4,5-b]quinoline-1,10-dione methanesulfonate]",
0.228,"Cc1cc(C(C)n2nc(O)c3[nH]c4cc(Cl)ccc4c(=O)c3c2=O)ccn1 (racemic) [Ex. 8, (+/−)-7-Chloro-4-hydroxy-2-(1-methyl(2-methylpyrid-4-yl)methyl)-1,2,5,10-tetrahydropyridazino[4,5-b]quinoline-1,10-dione methanesulfonate]",
2.57,"CC(c1cccc[n+]1[O-])n1nc(O)c2[nH]c3cc(Cl)ccc3c(=O)c2c1=O (racemic) [Ex. 10, (+/−)-7-Chloro-4-hydroxy-2-(1-pyrid-2-yl-N-oxide)ethyl-1,2,5,10-tetrahydropyridazino[4,5-b]quinoline-1,10-dione]",

# The next lines start with the compound.
SMILES,Ki [µM],also measured
"O=c1c2ccc(Cl)cc2[nH]c2c(O)nn(C(c3ccccn3)C3CC3)c(=O)c12 (racemic) [Ex. 1, (+/−)-7-Chloro-4-hydroxy-2-(1-cyclopropyl-1-pyrid-2-yl)methyl-1,2,5,10-tetrahydropyridazino[4,5-b]quinoline-1,10-dione]",,Ki [1]: 0.996 µM
"O=c1[nH]n(C(c2ccccn2)C2CCCC2)c(=O)c2c(O)c3ccc(Cl)cc3nc12 (racemic) [Ex. 3, (+/−)-7-Chloro-4-hydroxy-2-(1-cyclopentyl-1-pyrid-2-yl)methyl-1,2,5,10-tetrahydropyridazino[4,5-b]quinoline-1,10-dione hydrochloride]",,"Ki (inhibition of [3H]-MDL105,519 binding to brain membranes, bound in μM): > 10 µM"
"O=c1c2ccc(Cl)cc2[nH]c2c(O)nn(C(c3ccccc3)c3ccncc3)c(=O)c12 (racemic) [Ex. 4, (+/−)-7-Chloro-4-hydroxy-2-(1-phenyl-1-pyrid-4-yl)methyl-1,2,5,10-tetrahydropyridazino[4,5-b]quinoline-1,10-dione]",,Ki [1]: 3.69 µM
"CC(c1cc[n+]([O-])cc1)n1[nH]c(=O)c2nc3cc(Cl)ccc3c(O)c2c1=O (racemic) [Ex. 11, (+/−)-7-Chloro-4-hydroxy-2-(1-pyrid-4-yl-N-oxide)ethyl-1,2,5,10-tetrahydrpyridazino[4,5-b]quinoline-1,10-dione]",2.42,
